Experimental data taken from patent US20240076406A1, “SINGLE DOMAIN ANTIBODIES TARGETING CA-IX AS WELL AS COMPOSITIONS COMPRISING SAME” (National Research Council of Canada, priority 2021, published 2024).

Assays:
[1] = target: T1, purified hCA-IX ECD dimer (Homo sapiens, UniProt Q16790); test: In vitro rhCA-IX enzyme activity inhibition (4Mu-Ac hydrolysis); format: biochemical; conditions: [inhibitor] vs. normalized response - variable slope
T1 construct: in vitro enzyme activity assay using purified hCA-IX ECD dimer
Experimental: In vitro rhCA-IX enzyme activity inhibition. In order to examine the functional consequence of the binding of the two sdCA9-VHH antibodies to hCA-IX ECD, antibodies were tested in an in vitro enzyme activity assay using purified hCA-IX ECD dimer and 4-Methylumbelliferyl acetate (4Mu-Ac) as substrate.

[2] = system: 67NR^hCA-IX derived spheroids; test: Spheroid growth inhibition, 67NR^hCA-IX; format: cell-based, mouse; conditions: monitored for 8 days; compared with 67NR derived spheroids
Description: Spheroid growth inhibition.

[3] = system: SKRC59 and SKRC52 cell lines (low and high levels of hCA-IX); test: Cell binding assay, plate format; format: cell-based, human; conditions: cell line of Table 3 not stated
Experimental: Cell binding assays were performed using a plate-based format, binding was expressed as the mean fluorescent intensity per cell area. (control IgG (●), cG250 (▪), sdCA9-1-Fc (▴), and sdCA9-2-Fc (▾)). KD values were determined by plotting fluorescent intensity measured for each condition of the sdCA9-Fc antibodies using Graphpad Prism. cG250 full sized antibody (FSA) and isotype matching IgG FSA were used as bench mark and negative control, respectively.
Cell binding. […] These cell lines have been used in the literature for the screening of scFv Abs for binding to hCA-IX (Xu et al. 2010). KD values were determined to be in the low nanomolar range, the clinically used cG250 full sized antibody (FSA) was used as a bench mark. An isotype matching hIgG was used as negative control (FIG. 5).

| Compound | HillSlope (best fit value) [1] | spheroid growth, different concentrations [2] | Kd ([3]; cell binding, text: low nanomolar range, read-out: KD (best-fit value, one site specific binding)) | Bmax (best-fit value, one site specific binding) ([3]; mean fluorescent intensity per cell area) |
| --- | --- | --- | --- | --- |
| NS(=O)(=O)c1ccc(NC(=O)Nc2ccc(F)cc2)cc1 [Clone U104, reference compound] | −0.3305 | inhibited spheroid growth in a dose-dependent manner | – | – |
| cG250: clinically used anti-CA-IX full sized antibody (FSA), used as bench mark [reference compound] | – | – | 1.29 nM | 574.6 |
